In this assay the target is T1, PARK7 (Homo sapiens, UniProt Q99497).
T1 sequence (Q99497 1-189): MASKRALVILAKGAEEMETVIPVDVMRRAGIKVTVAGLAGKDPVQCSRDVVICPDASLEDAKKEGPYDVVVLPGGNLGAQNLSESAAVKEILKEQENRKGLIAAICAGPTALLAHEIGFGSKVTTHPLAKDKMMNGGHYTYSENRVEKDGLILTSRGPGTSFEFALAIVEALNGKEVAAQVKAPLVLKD
Nature of the assay: High-throughput screen of the crude compound library, PARK7 fluorescence polarization (FP) assay with FP reagent JYQ-107. Format: biochemical. As to conditions: read-out: HTS FP assay %Inhibition (1.25 µM).

[1] abbreviates: 1.25 µM, crude compound library, FP reagent JYQ-107.

Like-named read-outs stand apart in the source and are kept apart here.

What is called inhibition is the change of the read-out against control, counted positive when it falls.

As to `N#CN1CC[C@@H](C(=O)Nc2nc3c(s2)CN(C(=O)c2cccc(Oc4nccs4)c2)CC3)C1` [compound 351], the inhibition at 1.25 µM under setting [1] was 88.9%.
For the compound `CNS(=O)(=O)c1ccc(-c2ccccc2OC(F)(F)F)c(C(=O)N2CCc3nc(NC(=O)[C@@H]4CCN(C#N)C4)sc3C2)c1` [compound 352], the inhibition at 1.25 µM under setting [1] is 72%.
Still for that read-out and setting: next, `N#CN1CC[C@@H](C(=O)Nc2nc3c(s2)CN(C(=O)Cc2ccc(OCc4ccccn4)cc2)CC3)C1` [compound 353]: 73.2%; `N#CN1CC[C@@H](C(=O)Nc2nc3c(s2)CN(C(=O)c2cc(S(=O)(=O)Nc4cccc(F)c4)ccc2F)CC3)C1` [compound 354]: 72.5%.
Same read-out and setting: then `N#CN1CC[C@@H](C(=O)Nc2nc3c(s2)CN(C(=O)c2ncn(-c4ccccc4)n2)CC3)C1` [compound 355], with 85.3%.
Same read-out and setting: next, `N#CN1CC[C@@H](C(=O)Nc2nc3c(s2)CN(C(=O)C2CCCN(c4ccc(Cl)nn4)C2)CC3)C1` (stereo partly drawn) [compound 356]: 76.2%.
In the case of `N#CN1CC[C@@H](C(=O)Nc2nc3c(s2)CN(C(=O)c2cn[nH]c2C2CC2)CC3)C1` [compound 357], the inhibition at 1.25 µM under setting [1] amounted to 69.7%.
On the same count and under the same terms, then `N#CN1CC[C@@H](C(=O)Nc2nc3c(s2)CN(C(=O)C2CCCN(c4ncccc4C(F)(F)F)C2)CC3)C1` (stereo partly drawn) [compound 358], with 77.6%; and `N#CN1CC[C@@H](C(=O)Nc2nc3c(s2)CN(C(=O)c2nn(-c4ccccc4)c(=O)[nH]c2=O)CC3)C1` [compound 359], with 67.9%.
The same measure, in the same setting: then `Cn1cc(-c2nc(C(=O)N3CCc4nc(NC(=O)[C@@H]5CCN(C#N)C5)sc4C3)cs2)cn1` [compound 360], with 72.2%; and `N#CN1CC[C@@H](C(=O)Nc2nc3c(s2)CN(C(=O)c2ncsc2Cc2ccccc2)CC3)C1` [compound 361], with 82.9%; and `N#CN1CC[C@@H](C(=O)Nc2nc3c(s2)CN(C(=O)C2CCN(C(=O)N4CCOCC4)CC2)CC3)C1` [compound 362], with 71.7%.
On the same count and under the same terms, next, `Cc1n[nH]c(C)c1Cc1ccc(C(=O)N2CCc3nc(NC(=O)[C@@H]4CCN(C#N)C4)sc3C2)o1` [compound 363]: 78.9%; `CC1=NN(c2cccc(Br)c2)C(=O)C1CC(=O)N1CCc2nc(NC(=O)[C@@H]3CCN(C#N)C3)sc2C1` (stereo partly drawn) [compound 364]: 73%.
Regarding `CCn1ccc(-c2cc(C(=O)N3CCc4nc(NC(=O)[C@@H]5CCN(C#N)C5)sc4C3)no2)n1` [compound 365], under setting [1], the inhibition at 1.25 µM amounted to 78.3%.
Still for that read-out and setting: then `N#CN1CC[C@@H](C(=O)Nc2nc3c(s2)CN(C(=O)c2ccc(Cn4ccccc4=O)o2)CC3)C1` [compound 366], with 79.5%; and `CC(C)n1nccc1[C@@H]1OCC[C@H]1C(=O)N1CCc2nc(NC(=O)[C@@H]3CCN(C#N)C3)sc2C1` [compound 367], with 65%.
As to `N#CN1CC[C@@H](C(=O)Nc2nc3c(s2)CN(C(=O)c2cnc(-c4cccnc4)s2)CC3)C1` [compound 368], the inhibition at 1.25 µM under setting [1] was found to be 69.2%.
Still for that read-out and setting: then `N#CN1CC[C@@H](C(=O)Nc2nc3c(s2)CN(C(=O)C2CC(=O)N(OCc4ccccc4)C2)CC3)C1` (stereo partly drawn) [compound 370], with 72.4%; and `N#CN1CC[C@@H](C(=O)Nc2nc3c(s2)CN(C(=O)CC2CCN(c4ccc(Cl)nn4)CC2)CC3)C1` [compound 371], with 74.8%; and `N#CN1CC[C@@H](C(=O)Nc2nc3c(s2)CN(C(=O)c2cnn(CC4CCC4)c2)CC3)C1` [compound 372], with 81.6%.
The same measure, in the same setting: then `N#CN1CC[C@@H](C(=O)Nc2nc3c(s2)CN(C(=O)Cc2csc(C4CC4)n2)CC3)C1` [compound 373], with 81.4%.
The same measure, in the same setting: then `N#CN1CC[C@@H](C(=O)Nc2nc3c(s2)CN(C(=O)c2cc(C4CCC4)on2)CC3)C1` [compound 374], with 84%.
Consider `N#CN1CC[C@@H](C(=O)Nc2nc3c(s2)CN(C(=O)C(c2ccccc2)n2cccc2)CC3)C1` (stereo partly drawn) [compound 375], for which the inhibition at 1.25 µM under setting [1] was 68.5%.
Same read-out and setting: next, `N#CN1CC[C@@H](C(=O)Nc2nc3c(s2)CN(C(=O)c2nc(N4CCOCC4)ncc2Cl)CC3)C1` [compound 376]: 70.8%.
`N#CN1CC[C@@H](C(=O)Nc2nc3c(s2)CN(C(=O)C2CCCCN2S(=O)(=O)c2ccc(Br)s2)CC3)C1` (stereo partly drawn) [compound 377]: under setting [1], the inhibition at 1.25 µM was determined as 76.2%.
Turning to `CC(C)c1cc(C(=O)N2CCc3nc(NC(=O)[C@@H]4CCN(C#N)C4)sc3C2)n(-c2ccccc2)n1` [compound 378], the inhibition at 1.25 µM under setting [1] was 87%.
Take `N#CN1CC[C@@H](C(=O)Nc2nc3c(s2)CN(C(=O)c2ccc(-c4ncon4)cc2)CC3)C1` [compound 379]: the inhibition at 1.25 µM under setting [1] amounted to 75.2%.
Still for that read-out and setting: next, `N#CN1CC[C@@H](C(=O)Nc2nc3c(s2)CN(C(=O)C(CCc2ccccc2)c2ccccc2)CC3)C1` (stereo partly drawn) [compound 380]: 80.3%.
Consider `COC1CC(C(=O)N2CCc3nc(NC(=O)[C@@H]4CCN(C#N)C4)sc3C2)N(C(=O)OCc2ccccc2)C1` (stereo partly drawn) [compound 382], for which, under setting [1], the inhibition at 1.25 µM was found to be 75.9%.
On the same count and under the same terms, then `Cc1cccc(COc2cccc(C(=O)N3CCc4nc(NC(=O)[C@@H]5CCN(C#N)C5)sc4C3)c2)c1` [compound 383], with 87.5%; and `Cn1cc(-c2cc(C(=O)N3CCc4nc(NC(=O)[C@@H]5CCN(C#N)C5)sc4C3)no2)cn1` [compound 384], with 83%; and `N#CN1CC[C@@H](C(=O)Nc2nc3c(s2)CN(C(=O)Cc2ccc(NS(=O)(=O)c4cccc(C(F)(F)F)c4)cc2)CC3)C1` [compound 385], with 81%.
On the same count and under the same terms, next, `N#CN1CC[C@@H](C(=O)Nc2nc3c(s2)CN(C(=O)c2ccc(S(=O)(=O)N4CCCCCC4)cc2)CC3)C1` [compound 387]: 74.8%.
Same read-out and setting: next, `CSCCC(NC(C)=O)C(=O)N1CCc2nc(NC(=O)[C@@H]3CCN(C#N)C3)sc2C1` (stereo partly drawn) [compound 388]: -53.2%; `CC(=O)NCC(=O)N1CCc2nc(NC(=O)[C@@H]3CCN(C#N)C3)sc2C1` [compound 389]: 71.7%; `CC(C)CC(=O)N1CCc2nc(NC(=O)[C@@H]3CCN(C#N)C3)sc2C1` [compound 390]: 67.9%.
As to `N#CN1CC[C@@H](C(=O)Nc2nc3c(s2)CN(C(=O)c2ccccc2I)CC3)C1` [compound 391], the inhibition at 1.25 µM under setting [1] was 73.6%.
The same measure, in the same setting: next, `CC(C)C(=O)N1CCc2nc(NC(=O)[C@@H]3CCN(C#N)C3)sc2C1` [compound 392]: 63%; `Cc1cc(OCC(=O)N2CCc3nc(NC(=O)[C@@H]4CCN(C#N)C4)sc3C2)ccc1C(C)C` [compound 393]: 80.3%.
For the compound `CCCC(=O)N1CCc2nc(NC(=O)[C@@H]3CCN(C#N)C3)sc2C1` [compound 394], under setting [1], the inhibition at 1.25 µM was 70.5%.
On the same count and under the same terms, then `COc1ccc(C)cc1C(=O)N1CCc2nc(NC(=O)[C@@H]3CCN(C#N)C3)sc2C1` [compound 395], with 84.8%.
The same measure, in the same setting: then `CC(C)(C)OC(=O)Nc1ccccc1C(=O)N1CCc2nc(NC(=O)[C@@H]3CCN(C#N)C3)sc2C1` [compound 396], with 65.2%; and `Cc1cncc(C(=O)N2CCc3nc(NC(=O)[C@@H]4CCN(C#N)C4)sc3C2)c1` [compound 397], with 68.5%; and `N#CN1CC[C@@H](C(=O)Nc2nc3c(s2)CN(C(=O)CCN2C(=O)C=CC2=O)CC3)C1` [compound 398], with 65.7%.
On the same count and under the same terms, then `N#CN1CC[C@@H](C(=O)Nc2nc3c(s2)CN(C(=O)Cc2ccc([N+](=O)[O-])cc2)CC3)C1` [compound 399], with 58.2%; and `N#CN1CC[C@@H](C(=O)Nc2nc3c(s2)CN(C(=O)Cc2ccccc2[N+](=O)[O-])CC3)C1` [compound 400], with 80.8%.
Regarding `C#CCCC(=O)N1CCc2nc(NC(=O)[C@@H]3CCN(C#N)C3)sc2C1` [compound 401], the inhibition at 1.25 µM under setting [1] was 82.4%.
The same measure, in the same setting: next, `N#CN1CC[C@@H](C(=O)Nc2nc3c(s2)CN(C(=O)c2cnccn2)CC3)C1` [compound 402]: 85.1%; `N#CN1CC[C@@H](C(=O)Nc2nc3c(s2)CN(C(=O)c2ccc(/N=N/c4ccccc4)cc2)CC3)C1` [compound 403]: 84.3%; `N#CN1CC[C@@H](C(=O)Nc2nc3c(s2)CN(C(=O)Cc2ccncc2)CC3)C1` [compound 404]: 58.2%.
On the same count and under the same terms, then `Cn1c(=O)c2c(ncn2CC(=O)N2CCc3nc(NC(=O)[C@@H]4CCN(C#N)C4)sc3C2)n(C)c1=O` [compound 405], with 67.9%; and `N#CN1CC[C@@H](C(=O)Nc2nc3c(s2)CN(C(=O)CNC(=O)c2ccccc2)CC3)C1` [compound 406], with 82.4%.
The same measure, in the same setting: next, `N#CN1CC[C@@H](C(=O)Nc2nc3c(s2)CN(C(=O)c2ccc(B(O)O)cc2)CC3)C1` [compound 407]: 58.7%.
As to `CC(C)(C)OC(=O)NCC(=O)N1CCc2nc(NC(=O)[C@@H]3CCN(C#N)C3)sc2C1` [compound 408], the inhibition at 1.25 µM under setting [1] worked out at 75.4%.
`CC(C)(C)OC(=O)N[C@@H](Cc1cn(-c2ccc([N+](=O)[O-])cc2[N+](=O)[O-])cn1)C(=O)N1CCc2nc(NC(=O)[C@@H]3CCN(C#N)C3)sc2C1` [compound 409]: the inhibition at 1.25 µM was found to be 75.4%.
Regarding `N#CN1CC[C@@H](C(=O)Nc2nc3c(s2)CN(C(=O)CCCCBr)CC3)C1` [compound 410], the inhibition at 1.25 µM under setting [1] stood at 47.7%.
On the same count and under the same terms, next, `N#CN1CC[C@@H](C(=O)Nc2nc3c(s2)CN(C(=O)C(Br)c2ccccc2)CC3)C1` (stereo partly drawn) [compound 411]: 41.8%; `N#CN1CC[C@@H](C(=O)Nc2nc3c(s2)CN(C(=O)CCCCCBr)CC3)C1` [compound 412]: 52.5%.
On to `N#CN1CC[C@@H](C(=O)Nc2nc3c(s2)CN(C(=O)c2ccccc2CCc2ccccc2)CC3)C1` [compound 413], for which the inhibition at 1.25 µM under setting [1] is 79.7%.

For the origin of these results see PMC11129182, “Development of Inhibitors, Probes, and PROTAC Provides a Complete Toolbox to Study PARK7 in the Living Cell” (Journal of Medicinal Chemistry, 2024).
